Measured values published in patent US6358885B1, “Substituted phenylheterocyclic herbicides” (Mississippi State University, priority 1992, dated 2002).

What was measured:
umbrella sedge = assay: Test C flood test plant response rating 0 to 100; format: in vivo, Cyperus difformis
Procedure, shortened: (§1)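 Compounds in non-phytotoxic solvent applied preemergence to sandy loam one day after planting, postemergence at the 1–4 leaf stage, or to ~2.5 cm floodwater over silt loam.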

cocklebur = assay: Test B preemergence/postemergence greenhouse plant response rating 0 to 10; format: in vivo, Xanthium pensylvanicum; conditions: 0 to 10 scale
Procedure, shortened: (§2)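 Planted seeds are treated preemergence with compound dissolved in a non-phytotoxic solvent, while postemergence applications go onto plants of two to eighteen cm. Plants stay in the greenhouse twelve to sixteen days and are then rated visually relative to controls.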

giant foxtail = assay: Test C preemergence/postemergence greenhouse plant response rating 0 to 100; format: in vivo, Setaria faberii; conditions: for Plant response rating, Giant foxtail: 62 g/ha, 0 to 100 scale
Procedure, shortened: (§3)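 Compounds in non-phytotoxic solvent went onto sandy loam before emergence (seeded one day earlier) or onto plants at the one-to-four leaf stage. Duck salad was treated via flood water (~2.5 cm, maintained) over silt loam.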

corn = assay: as above; format: in vivo, Zea mays; conditions: for Plant response rating, Corn: 62 g/ha, 0 to 100 scale
Procedure, shortened: as §3

chickweed = assay: as above; format: in vivo, Stellaria media; conditions: for Plant response rating, Chickweed: 62 g/ha, 0 to 100 scale
Procedure, shortened: as §3

cotton = assay: as above; format: in vivo, Gossypium hirsutum; conditions: for Plant response rating, Cotton: 62 g/ha, 0 to 100 scale
Procedure, shortened: as §3

velvetleaf = assay: as above; format: in vivo, Abutilon theophrasti
Procedure, shortened: as §3

bedstraw = assay: as above; format: in vivo, Galium aparine; conditions: for Plant response rating, Bedstraw: 62 g/ha, 0 to 100 scale
Procedure, shortened: as §3

pigweed = assay: as above; format: in vivo, Amaranthusretroflexus; conditions: for Plant response rating Pigweed: 62 g/ha, 0 to 100 scale
Procedure, shortened: as §3

sugar beet = assay: as above; format: in vivo, Beta vulgaris
Procedure, shortened: as §3

duck salad = assay: Test C flood test plant response rating 0 to 100; format: in vivo, Heteranthera limosa
Procedure, shortened: as §3

rice [1] = assay: Test B preemergence/postemergence greenhouse plant response rating 0 to 10; format: in vivo, Oryza sativa; conditions: 0 to 10 scale
Procedure, shortened: as §2

rice [2] = assay: Test C flood test plant response rating 0 to 100; format: in vivo, Oryza sativa
Procedure, shortened: as §1

purple nutsedge = assay: Test B preemergence/postemergence greenhouse plant response rating 0 to 10; format: in vivo, Cyperus rotundus; conditions: 0 to 10 scale
Procedure, shortened: as §2

soybean = assay: as above; format: in vivo, Glycine max; conditions: 0 to 10 scale
Procedure, shortened: as §2

wild buckwheat = assay: as above; format: in vivo, Polygonum convolvulus; conditions: 0 to 10 scale
Procedure, shortened: as §2

blackgrass = assay: Test C preemergence/postemergence greenhouse plant response rating 0 to 100; format: in vivo, Alopecurus myosuroides; conditions: for Plant response rating, Blackgrass: 62 g/ha, 0 to 100 scale
Procedure, shortened: as §3

[3] = POSTEMERGENCE section, flood test, Rate 1 g/ha
[4] = POSTEMERGENCE section, flood test, Rate 4 g/ha
[5] = Rate 16 g/ha, under POSTEMERGENCE head (flood test species)
[6] = flood test species listed under POSTEMERGENCE, 62 g/ha, 0 to 100 scale
[7] = POSTEMERGENCE, 62 g/ha, 0 to 100 scale

Compound: CCN1C(=O)COc2cc(F)c(-c3nn4c(c3Cl)CCCC4)cc21 [Compound 54]
- Plant response rating (0 to 100), Umbrella sedge (umbrella sedge; [3]): 0
- Plant response rating (0 to 100), Umbrella sedge (umbrella sedge; [4]): 0
- Plant response rating (0 to 100), Umbrella sedge (umbrella sedge; [5]): 10
- Plant response rating Umbrella sedge (umbrella sedge; [6]): 70
- Plant response rating, Cocklebur (cocklebur; POSTEMERGENCE, Rate 10 g/ha): 9
- Plant response rating, Cocklebur (cocklebur; POSTEMERGENCE, Rate 50 g/ha): 10
- Plant response rating, Cocklebur (cocklebur; PREEMERGENCE, Rate 10 g/ha): 0
- Plant response rating, Cocklebur (cocklebur; PREEMERGENCE, Rate 50 g/ha): 0
- Plant response rating, Giant foxtail (giant foxtail; POSTEMERGENCE): 70
- Plant response rating (0 to 100), Giant foxtail (giant foxtail; POSTEMERGENCE, Rate 1 g/ha): 10
- Plant response rating (0 to 100), Giant foxtail (giant foxtail; POSTEMERGENCE, Rate 4 g/ha): 20
- Plant response rating, Giant foxtail (giant foxtail; PREEMERGENCE): 60
- Plant response rating (0 to 100), Giant foxtail (giant foxtail; PREEMERGENCE, Rate 1 g/ha): 0
- Plant response rating (0 to 100), Giant foxtail (giant foxtail; PREEMERGENCE, Rate 4 g/ha): 0
- Plant response rating (0 to 100), Giant foxtail (giant foxtail; Rate 16 g/ha, POSTEMERGENCE): 40
- Plant response rating (0 to 100), Giant foxtail (giant foxtail; Rate 16 g/ha, PREEMERGENCE): 0
- Plant response rating, Corn (corn; POSTEMERGENCE): 50
- Plant response rating (0 to 100), Corn (corn; POSTEMERGENCE, Rate 1 g/ha): 30
- Plant response rating (0 to 100), Corn (corn; POSTEMERGENCE, Rate 4 g/ha): 30
- Plant response rating, Corn (corn; PREEMERGENCE): 40
- Plant response rating (0 to 100), Corn (corn; PREEMERGENCE, Rate 1 g/ha): 0
- Plant response rating (0 to 100), Corn (corn; PREEMERGENCE, Rate 4 g/ha): 0
- Plant response rating (0 to 100), Corn (corn; Rate 16 g/ha, POSTEMERGENCE): 40
- Plant response rating (0 to 100), Corn (corn; Rate 16 g/ha, PREEMERGENCE): 0
- Plant response rating, Chickweed (chickweed; POSTEMERGENCE): 100
- Plant response rating (0 to 100), Chickweed (chickweed; POSTEMERGENCE, Rate 1 g/ha): 60
- Plant response rating (0 to 100), Chickweed (chickweed; POSTEMERGENCE, Rate 4 g/ha): 75
- Plant response rating, Chickweed (chickweed; PREEMERGENCE): 100
- Plant response rating (0 to 100), Chickweed (chickweed; PREEMERGENCE, Rate 1 g/ha): 0
- Plant response rating (0 to 100), Chickweed (chickweed; PREEMERGENCE, Rate 4 g/ha): 0
- Plant response rating (0 to 100), Chickweed (chickweed; Rate 16 g/ha, POSTEMERGENCE): 100
- Plant response rating (0 to 100), Chickweed (chickweed; Rate 16 g/ha, PREEMERGENCE): 20
- Plant response rating, Cotton (cotton; POSTEMERGENCE): 100
- Plant response rating (0 to 100), Cotton (cotton; POSTEMERGENCE, Rate 1 g/ha): 70
- Plant response rating (0 to 100), Cotton (cotton; POSTEMERGENCE, Rate 4 g/ha): 95
- Plant response rating, Cotton (cotton; PREEMERGENCE): 40
- Plant response rating (0 to 100), Cotton (cotton; PREEMERGENCE, Rate 1 g/ha): 0
- Plant response rating (0 to 100), Cotton (cotton; PREEMERGENCE, Rate 4 g/ha): 0
- Plant response rating (0 to 100), Cotton (cotton; Rate 16 g/ha, POSTEMERGENCE): 100
- Plant response rating (0 to 100), Cotton (cotton; Rate 16 g/ha, PREEMERGENCE): 0
- Plant response rating, Velvetleaf (velvetleaf; [7]): 100
- Plant response rating (0 to 100), Velvetleaf (velvetleaf; POSTEMERGENCE, Rate 1 g/ha): 70
- Plant response rating (0 to 100), Velvetleaf (velvetleaf; POSTEMERGENCE, Rate 4 g/ha): 100
- Plant response rating (0 to 100), Velvetleaf (velvetleaf; PREEMERGENCE, Rate 1 g/ha): 0
- Plant response rating (0 to 100), Velvetleaf (velvetleaf; PREEMERGENCE, Rate 4 g/ha): 0
- Plant response rating (0 to 100), Velvetleaf (velvetleaf; Rate 16 g/ha, POSTEMERGENCE): 100
- Plant response rating (0 to 100), Velvetleaf (velvetleaf; Rate 16 g/ha, PREEMERGENCE): 80
- Plant response rating, Bedstraw (bedstraw; POSTEMERGENCE): 100
- Plant response rating (0 to 100), Bedstraw (bedstraw; POSTEMERGENCE, Rate 1 g/ha): 65
- Plant response rating (0 to 100), Bedstraw (bedstraw; POSTEMERGENCE, Rate 4 g/ha): 85
- Plant response rating, Bedstraw (bedstraw; PREEMERGENCE): 50
- Plant response rating (0 to 100), Bedstraw (bedstraw; PREEMERGENCE, Rate 1 g/ha): 0
- Plant response rating (0 to 100), Bedstraw (bedstraw; PREEMERGENCE, Rate 4 g/ha): 0
- Plant response rating (0 to 100), Bedstraw (bedstraw; Rate 16 g/ha, POSTEMERGENCE): 100
- Plant response rating (0 to 100), Bedstraw (bedstraw; Rate 16 g/ha, PREEMERGENCE): 30
- Plant response rating Pigweed (pigweed; POSTEMERGENCE): 100
- Plant response rating (0 to 100), Pigweed (pigweed; POSTEMERGENCE, Rate 1 g/ha): 95
- Plant response rating (0 to 100), Pigweed (pigweed; POSTEMERGENCE, Rate 4 g/ha): 100
- Plant response rating Pigweed (pigweed; PREEMERGENCE): 100
- Plant response rating (0 to 100), Pigweed (pigweed; PREEMERGENCE, Rate 1 g/ha): 0
- Plant response rating (0 to 100), Pigweed (pigweed; PREEMERGENCE, Rate 4 g/ha): 90
- Plant response rating (0 to 100), Pigweed (pigweed; Rate 16 g/ha, POSTEMERGENCE): 100
- Plant response rating (0 to 100), Pigweed (pigweed; Rate 16 g/ha, PREEMERGENCE): 100
- Plant response rating, Sugar beet (sugar beet; [7]): 100
- Plant response rating (0 to 100), Sugar beet (sugar beet; POSTEMERGENCE, Rate 1 g/ha): 100
- Plant response rating (0 to 100), Sugar beet (sugar beet; POSTEMERGENCE, Rate 4 g/ha): 100
- Plant response rating (0 to 100), Sugar beet (sugar beet; PREEMERGENCE, Rate 1 g/ha): 0
- Plant response rating (0 to 100), Sugar beet (sugar beet; PREEMERGENCE, Rate 4 g/ha): 10
- Plant response rating (0 to 100), Sugar beet (sugar beet; Rate 16 g/ha, POSTEMERGENCE): 100
- Plant response rating (0 to 100), Sugar beet (sugar beet; Rate 16 g/ha, PREEMERGENCE): 100
- Plant response rating (0 to 100), Duck salad (duck salad; [3]): 0
- Plant response rating (0 to 100), Duck salad (duck salad; [4]): 0
- Plant response rating (0 to 100), Duck salad (duck salad; [5]): 35
- Plant response rating Duck salad (duck salad; [6]): 100
- Plant response rating, Rice (rice [1]; POSTEMERGENCE, Rate 10 g/ha): 3
- Plant response rating, Rice (rice [1]; POSTEMERGENCE, Rate 50 g/ha): 4
- Plant response rating, Rice (rice [1]; PREEMERGENCE, Rate 50 g/ha): 0
- Plant response rating (0 to 100), Rice Japonica (rice [2]; [3]): 0
- Plant response rating (0 to 100), Rice Japonica (rice [2]; [4]): 0
- Plant response rating (0 to 100), Rice Japonica (rice [2]; [5]): 55
- Plant response rating Rice Japonica (rice [2]; [6]): 85
- Plant response rating, Nutsedge (purple nutsedge; POSTEMERGENCE, Rate 10 g/ha): 2
- Plant response rating, Nutsedge (purple nutsedge; POSTEMERGENCE, Rate 50 g/ha): 2
- Plant response rating, Nutsedge (purple nutsedge; PREEMERGENCE, Rate 50 g/ha): 0
- Plant response rating, Soybean (soybean; POSTEMERGENCE, Rate 10 g/ha): 8
- Plant response rating, Soybean (soybean; POSTEMERGENCE, Rate 50 g/ha): 9
- Plant response rating, Soybean (soybean; PREEMERGENCE, Rate 50 g/ha): 0
- Plant response rating, Wild buckwheat (wild buckwheat; POSTEMERGENCE, Rate 10 g/ha): 10
- Plant response rating, Wild buckwheat (wild buckwheat; POSTEMERGENCE, Rate 50 g/ha): 10
- Plant response rating, Wild buckwheat (wild buckwheat; PREEMERGENCE, Rate 50 g/ha): 10
- Plant response rating, Blackgrass (blackgrass; POSTEMERGENCE): 60
- Plant response rating (0 to 100), Blackgrass (blackgrass; POSTEMERGENCE, Rate 1 g/ha): 30
- Plant response rating (0 to 100), Blackgrass (blackgrass; POSTEMERGENCE, Rate 4 g/ha): 40
- Plant response rating, Blackgrass (blackgrass; PREEMERGENCE): 70
- Plant response rating (0 to 100), Blackgrass (blackgrass; PREEMERGENCE, Rate 1 g/ha): 0
- Plant response rating (0 to 100), Blackgrass (blackgrass; PREEMERGENCE, Rate 4 g/ha): 10
- Plant response rating (0 to 100), Blackgrass (blackgrass; Rate 16 g/ha, POSTEMERGENCE): 50
- Plant response rating (0 to 100), Blackgrass (blackgrass; Rate 16 g/ha, PREEMERGENCE): 20
